Assay results reported in patent publication US6706709B2, “Indolinone derivatives as protein kinase/phosphatase inhibitors” (Sugen, Inc., priority 2000, dated 2004).

Key:
EGF Receptor = target: T1, EGF Receptor (Homo sapiens, UniProt P00533); assay: bio EGF (EGF Receptor ELISA); type: biochemical
T1 construct: expressed in transfected cells; host or cells: NIH 3T3/C7 (mouse fibroblasts engineered to express human EGF-R)
Experimental: EGF Receptor kinase activity in cells genetically engineered to express human EGF-R was measured as described below:
The following materials and reagents were used:
b. 05-101 (UBI) (a monoclonal antibody recognizing an EGFR extracellular domain).
c. Anti-phosphotyrosine antibody (anti-Ptyr) (polyclonal).
d. Detection antibody: Goat anti-rabbit lgG horse radish peroxidase conjugate, TAGO, Inc., Burlingame, Calif.
Keep solution in dark at 4° C. until used.
The following protocol was used:
1. […] Coated plates are good for up to 10 days when stored at 4° C.
2. On day of use, remove coating buffer and replace with blocking buffer (5% Carnation Instant Non-Fat Dry Milk in PBS). Incubate the plate, shaking, at room temperature (about 23° C. to 25° C.) for 30 minutes. Just prior to use, remove blocking buffer and wash plate 4 times with TBST buffer.
2. Choose dishes having 80-90% confluence for the experiment. Trypsinize cells and stop reaction by adding 10% CS DMEM medium. Suspend cells in DMEM medium (10% CS DMEM medium) and centrifuge once at 1000 rpm at room temperature for 5 minutes.
3. Resuspend cells in seeding medium (DMEM, 0.5% bovine serum), and count the cells using trypan blue. Viability above 90% is acceptable. Seed cells in DMEM medium (0.5% bovine serum) at a density of 10,000 cells per well, 100 μL per well, in a 96 well microtiter plate. Incubate seeded cells in 5% CO2 at 37° C. for about 40 hours.
1. Check seeded cells for contamination using an inverted microscope. Dilute drug stock (10 mg/ml in DMSO) 1:10 in DMEM medium, then transfer 5 μL to a test well for a final drug dilution of 1:200 and a final DMSO concentration of 1%. Control wells receive DMSO alone. Incubate in 5% CO2 at 37° C. for one hour.
2. Prepare EGF ligand: dilute stock EGF in DMEM so that upon transfer of 10 μL dilute EGF (1:12 dilution), 25 nM final concentration is attained.
3. Prepare fresh 10 ml HNTG* sufficient for 100 μL per well wherein HNTG* comprises: HNTG stock (2.0 mL), milli-Q H2O (7.3 mL), EDTA, 100 mM, pH 7.0 (0.5 mL), Na3VO4 0.5 M (0.1 mL) and Na4(P2O7), 0.2 M (0.1 mL).
5. After two hours incubation with drug, add prepared EGF ligand to cells, 10 μL per well, to yield a final concentration of 25 nM. Control wells receive DMEM alone. Incubate, shaking, at room temperature, for 5 minutes.
6. Remove drug, EGF, and DMEM. Wash cells twice with PBS. Transfer HNTG* to cells, 100 μL per well. Place on ice for 5 minutes. Meanwhile, remove blocking buffer from other ELISA plate and wash with TBST as described above.
7. With a pipette tip securely fitted to a micropipettor, scrape cells from plate and homogenize cell material by repeatedly aspirating and dispensing the HNTG* lysis buffer. Transfer lysate to a coated, blocked, and washed ELISA plate. Incubate shaking at room temperature for one hour.
8. Remove lysate and wash 4 times with TBST. Transfer freshly diluted anti-Ptyr antibody to ELISA plate at 100 μL per well. Incubate shaking at room temperature for 30 minutes in the presence of the anti-Ptyr antiserum (1:3000 dilution in TBST).
9. Remove the anti-Ptyr antibody and wash 4 times with TBST. Transfer the freshly diluted TAGO 30 anti-rabbit IgG antibody to the ELISA plate at 100 μL per well. Incubate shaking at room temperature for 30 minutes (anti-rabbit IgG antibody: 1:3000 dilution in TBST).
10. Remove detection antibody and wash 4 times with TBST. Transfer freshly prepared ABTS/H2O2 solution to ELISA plate, 100 μL per well. Incubate at room temperature for 20 minutes. ABTS/H2O2 solution: 1.2 μL 30% H2O2in 10 mL ABTS stock.
11. Stop reaction by adding 50 μL 5N H2SO4 (optional), and determine O.D. at 410 nm.
12. The maximal phosphotyrosine signal is determined by subtracting the value of the negative controls from the positive controls. The percent inhibition of phosphotyrosine content for extract-containing wells is then calculated, after subtraction of the negative controls.

GST-Flk1 = GST-Flk1 (UniProt P35918); assay: GST-FLK-1 bioassay (bio flkGST); type: biochemical
Experimental: This assay analyzes the tyrosine kinase activity of GST-Flk1 on poly glu tyr peptides.
2. poly glu tyr 4:1, lyophilizate (Sigma Catalog # P0275). Prepare 1 mg/mL poly glu tyr in sterile PBS and store in 1 ml aliquots at −20° C.
3. Preparation of poly glu tyr (pEY) coated assay plates: Coat 2 μg/well of poly glu tyr (pEY) in 100 μL PBS at room temperature for 2 hours or at +4° C. overnight. Cover plates well to prevent evaporation.
4. PBS Buffer: To make 1 liter of a 1× working solution, mix […], 1.15 g NA2HPO4, 0.2 g KCl and 8 g NaCl in approx. 900 mL dH2O. When all reagents have dissolved, adjust the pH to 7.2 with HCl. Bring total volume to 1L with dH2O.
5. PBS-Tw Buffer: To 1L of PBS Buffer, add […] Tween-20. Stir until dissolved.
6. TBB-Blocking Buffer: To make one liter of a 1× working solution, mix 1.21 g TRIS, 8.77 g NaCl, 1 mL TWEEN-20 in approximately 900 mL dH2O. Adjust pH to 7.2 with HCl. Add 10 g BSA, stir to dissolve. Bring total volume to 1 L with dH2O. Filter to remove particulate matter.
7. 1% BSA in PBS: To make a 1× working solution, add 10 g BSA to approx. 990 mL PBS buffer, stir to dissolve. Adjust total volume to 1 L with PBS buffer, filter to remove particulate matter.
9. GST-Flk1cd purified from sf9 recombinant baculovirus transformation.
13. Kinase Dilution Buffer (KDB): Mix 10 mL Hepes (pH 7.5), 1 mL of 5 M NaCl, 40 μL of 100 mM NaVO4 and 0.4 mL of 5% BSA in dH2O with 88.56 mL of dH2O.
14. NUNC-96-well V bottom polypropylene plates Applied Scientific Catalog # AS-72092
15. EDTA: Mix 14.12 g ethylenediaminetetraacetic acid (EDTA) to approx. 70 mL dH2O. Add 10N NaOH until EDTA dissolves. Adjust pH to 8.0. Adjust total volume to 100 mL with dH2O.
16. 1° Antibody Dilution Buffer: Mix 10 mL of 5% BSA in PBS buffer with 89.5 mL TBSTw.
17. Anti-phosphotyrosine monoclonal conjugated to horseradish peroxidase (PY99 HRP, Santa Cruz Biotech).
18. 2,2′-Azino-bis(3-ethylbenzthiazoline-6-sulfonic acid (ABTS, Moss, Cat. No. ABST).
1. Coat Corning 96 well ELISA plates with 2 μg of polyEY peptide in sterile PBS as described in step 3 of Materials and Reagents.
2. Remove unbound liquid from wells by inverting plate. Wash once with TBSTw. Pat the plate on a paper towel to remove excess liquid.
3. Add 100 μL of 1% BSA in PBS to each well. Incubate, with shaking, for 1 hr. at room temperature.
5. Soak wells with 50 mM Hepes pH7.5 (150 μL/well).
6. Dilute test compound with dH2O/4% DMSO to 4 times the desired final assay concentration in 96-well polypropylene plates.
7. Add 25 μL diluted test compound to ELISA plate.
8. Add 25 μL of 40 mM MnCl2 with 4×ATP (2 μM) to all wells.
9. Add 25 μL 0.5 M EDTA to negative control wells.
10. Dilute GST-Flk1 0.005 μg (5 ng)/well in KDB. For 50 ml KDB add 100 μL of 0.050 mg/mL GST-Flk1 enzyme.
11. Add 50 μL of diluted enzyme to each well.
12. Incubate, with shaking, for 15 minutes at room temperature.
13. Stop reaction by adding 50 μL of 250 mM EDTA (pH 8.0).
14. Wash 3× with TBSTw and pat plate on paper towel to remove excess liquid.
15. Add 100 μL per well anti-phosphotyrosine HRP conjugate, 1:5,000 dilution in antibody dilution buffer. Incubate, with shaking for 90 min. at room temperature.
16. Wash as described above in step 14.
17. Add 100 μL of room temperature ABTS solution to each well.
18. Incubate, with shaking, for 10 to 15 minutes. Remove any bubbles.
19. Stop reaction by adding 20 μL of 10% SDS.
20. Read assay on Dynatech MR7000 ELISA reader: test filter at 410 nM; reference filter at 630 nM.

T1 sequence (P00533 25-1210): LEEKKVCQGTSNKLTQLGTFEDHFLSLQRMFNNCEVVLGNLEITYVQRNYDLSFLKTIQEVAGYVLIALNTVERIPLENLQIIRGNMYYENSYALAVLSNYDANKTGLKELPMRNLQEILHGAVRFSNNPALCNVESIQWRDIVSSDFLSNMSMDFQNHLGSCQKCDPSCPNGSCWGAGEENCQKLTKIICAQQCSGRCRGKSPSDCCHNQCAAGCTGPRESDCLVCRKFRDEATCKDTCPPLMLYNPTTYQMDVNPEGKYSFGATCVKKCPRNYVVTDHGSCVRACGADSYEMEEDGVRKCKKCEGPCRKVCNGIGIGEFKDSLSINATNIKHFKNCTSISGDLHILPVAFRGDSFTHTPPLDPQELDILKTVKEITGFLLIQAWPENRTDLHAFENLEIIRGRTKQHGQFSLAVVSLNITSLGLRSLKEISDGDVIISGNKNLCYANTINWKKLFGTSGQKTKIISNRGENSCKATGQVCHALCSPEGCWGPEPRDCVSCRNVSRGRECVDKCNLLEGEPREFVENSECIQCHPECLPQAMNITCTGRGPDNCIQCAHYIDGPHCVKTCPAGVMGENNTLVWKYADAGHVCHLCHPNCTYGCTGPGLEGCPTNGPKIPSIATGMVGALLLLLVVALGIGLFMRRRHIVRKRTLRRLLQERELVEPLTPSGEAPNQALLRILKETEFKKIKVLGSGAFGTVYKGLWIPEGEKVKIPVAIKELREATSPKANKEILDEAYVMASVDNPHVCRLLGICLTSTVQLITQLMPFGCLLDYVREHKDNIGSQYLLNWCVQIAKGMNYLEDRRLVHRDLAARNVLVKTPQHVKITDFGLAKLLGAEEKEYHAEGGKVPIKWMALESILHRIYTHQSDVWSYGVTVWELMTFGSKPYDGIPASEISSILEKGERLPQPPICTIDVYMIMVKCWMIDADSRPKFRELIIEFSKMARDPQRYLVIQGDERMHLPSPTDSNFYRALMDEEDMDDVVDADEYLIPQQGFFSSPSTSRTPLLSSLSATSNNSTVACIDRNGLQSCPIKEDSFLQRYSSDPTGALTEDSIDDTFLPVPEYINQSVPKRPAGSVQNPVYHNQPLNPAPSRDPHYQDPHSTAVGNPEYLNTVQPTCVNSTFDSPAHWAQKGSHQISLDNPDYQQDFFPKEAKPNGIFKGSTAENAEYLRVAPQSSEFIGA

| IC50 (EGF Receptor) [µM] | IC50 (GST-Flk1) [µM] | SMILES |
| --- | --- | --- |
| > 20 | 1.47 | O=C1Nc2ccc(-c3ccccc3)cc2C1=Cc1cc2cc(OCCN3CCOCC3)ccc2[nH]1 [IN-032, 3-[5-(2-morpholin-4-yl-ethoxy)-1H-indol-2-ylmethylene]-5-phenyl-1,3-dihydro-indol-2-one] |
| 8.2 | < 0.009 | O=C1Nc2cccc(CCO)c2C1=Cc1cc2cc(OCCN3CCOCC3)ccc2[nH]1 [IN-033, 4-(2-hydroxy-ethyl)-3-[5-(2-morpholin-4-yl-ethoxy)-1H-indol-2-ylmethylene]-1,3-dihydro-indol-2-one] |
| > 20 | 14 | O=C1Nc2cc(-c3cccnc3)ccc2C1=Cc1cc2cc(OCCN3CCOCC3)ccc2[nH]1 [IN-034, 3-[5-(2-morpholin-4-yl-ethoxy)-1H-indol-2-ylmethylene]-6-pyridin-3-yl-1,3-dihydro-indol-2-one] |
| > 20 | > 20 | COc1ccc(-c2ccc3c(c2)NC(=O)C3=Cc2cc3cc(OCCN4CCOCC4)ccc3[nH]2)cc1 [IN-035, 6-(4-methoxy-phenyl)-3-[5-(2-morpholin-4-yl-ethoxy)-1H-indol-2-ylmethylene]-1,3-dihydro-indol-2-one] |
| > 20 | > 20 | COc1cccc(-c2ccc3c(c2)NC(=O)C3=Cc2cc3cc(OCCN4CCOCC4)ccc3[nH]2)c1 [IN-036, 6-(3-methoxy-phenyl)-3-[5-(2-morpholin-4-yl-ethoxy)-1H-indol-2-ylmethylene]-1,3-dihydro-indol-2-one] |
| > 20 | 4.38 | COc1ccccc1-c1ccc2c(c1)NC(=O)C2=Cc1cc2cc(OCCN3CCOCC3)ccc2[nH]1 [IN-037, 6-(2-methoxy-phenyl)-3-[5-(2-morpholin-4-yl-ethoxy)-1H-indol-2-ylmethylene]-1,3-dihydro-indol-2-one] |
| > 20 | > 10 | O=C1Nc2cc(-c3ccc(F)cc3)ccc2C1=Cc1cc2cc(OCCN3CCOCC3)ccc2[nH]1 [IN-038, 6-(4-fluoro-phenyl)-3-[5-(2-morpholin-4-yl-ethoxy)-1H-indol-2-ylmethylene]-1,3-dihydro-indol-2-one] |
| > 100 | 0.17 | NS(=O)(=O)c1ccc2c(c1)C(=Cc1cc3cc(OCCN4CCCC4)ccc3[nH]1)C(=O)N2 [IN-039, 2-oxo-3-[5-(2-pyrrolidin-1-yl-ethoxy)-1H-indol-2-ylmethylene]-2,3-dihydro-1H-indole-5-sulfonic acid amide] |
| > 100 | 0.21 | NS(=O)(=O)c1ccc2c(c1)C(=Cc1cc3cc(OCCN4CCOCC4)ccc3[nH]1)C(=O)N2 [IN-040, 3-[5-(2-morpholin-4-yl-ethoxy)-1H-indol-2-ylmethylene]-2-oxo-2,3-dihydro-1H-indole-5-sulfonic acid amide] |
| 8.43 | 0.21 | CNS(=O)(=O)c1ccc2c(c1)C(=Cc1cc3cc(OCCN4CCCC4)ccc3[nH]1)C(=O)N2 [IN-041, 2-oxo-3-[5-(2-pyrrolidin-1-yl-ethoxy)-1H-indol-2-ylmethylene]-2,3-dihydro-1H-indole-5-sulfonic acid methylamide] |
| 7.84 | 1.34 | CN(C)S(=O)(=O)c1ccc2c(c1)C(=Cc1cc3cc(OCCN4CCCC4)ccc3[nH]1)C(=O)N2 [IN-042, 2-oxo-3-[5-(2-pyrrolidin-1-yl-ethoxy)-1H-indol-2-ylmethylene]-2,3-dihydro-1H-indole-5-sulfonic acid dimethylamide] |
| 4.35 | 0.27 | CC(C)NS(=O)(=O)c1ccc2c(c1)C(=Cc1cc3cc(OCCN4CCCC4)ccc3[nH]1)C(=O)N2 [IN-043, 2-oxo-3-[5-(2-pyrrolidin-1-yl-ethoxy)-1H-indol-2-ylmethylene]-2,3-dihydro-1H-indole-5-sulfonic acid isopropylamide] |
| 1.69 | 0.18 | O=C1Nc2ccc(S(=O)(=O)Nc3ccccc3)cc2C1=Cc1cc2cc(OCCN3CCCC3)ccc2[nH]1 [IN-044, 2-oxo-3-[5-(2-pyrrolidin-1-yl-ethoxy)-1H-indol-2-ylmethylene]-2,3-dihydro-1H-indole-5-sulfonic acid phenylamide] |
